Measurements: patent US20170246166A1, “1,2-BENZOTHIAZOLE COMPOUNDS FOR THE TREATMENT OF KIDNEY DISORDERS” (priority 2014, published 2017)

Legend:
PKC [1] = test: Cell-based assay of PKC inhibition (PKC substrate phosphorylation in THP-1 cells); details: human THP-1 cells, 1.5 h compound, then 20 nM PMA for 30 min; read-out: absolute IC50, PKC substrate phosphorylation
Procedure: The purpose of this assay is to test the inhibitory effects of a test compound on PKC in a cell-based system by measuring the level of PKC substrate phosphorylation.
Staurosporin may be used as a positive control. It is prepared in DMSO to make up a […] solution and then serially diluted in plain RPMI 1640 culture medium (10 μM-0.0005 μM) to obtain a ten-point dilution curve. Test compounds are prepared in the same manner.
THP-1 cells (human macrophage cell line) are obtained from ATCC (ATCC TIB-202 lot 4028542). The cells are cultured in 96-well plates coated with poly-d-lysine (Becton Dickinson) with seeding density of 4000 cells/well in RPMI 1640 culture medium (Gibco) with 1% fetal bovine serum (Gibco). […]
After the incubation, the cells are first fixed in the Prefer fixative (ANATECH LTD) for 30 min at room temperature. […] Plates are scanned with an ACUMEN EXPLORER™ Laser-scanning fluorescence microplate cytometer (TTP LABTECH LTD), with 488 nm laser excitation to detect emission fluorescence at 655 nm-705 nm (emission of DNA bound propidium iodide) for cell counting/well, and emission of 505 nm-530 nm fluorescence of antibody binding to phosphorylated PKC substrates in cells. The main assay output is a ratio of total fluorescence of phosphorylated PKC substrates to total cell number (ratio=total intensity/total cell number). […]

PKC [2] = test: PKC in vivo target inhibition assay (pleckstrin phosphorylation in blood cells); parameters: species or system mouse; details: male ICR mice, oral gavage, 2 h after treatment
Procedure: The purpose of this assay is to evaluate the effects of in vivo administration of a test compound on PKC substrate phosphorylation in blood cells.
Pleckstrin is one of the PKC protein substrates and is primarily expressed in platelets and peripheral blood mononuclear cells (PBMC). Pleckstrin phosphorylation is proportional to PKC activity. The phosphorylation state of the pleckstrin protein in purified platelets and PBMC from mouse blood is analyzed via Western blotting using a primary antibody specific for phosphorylated PKC substrates. This antibody recognizes multiple phosphorylated PKC substrates that include, but are not limited to p-pleckstrin. The p-pleckstrin band is identified based on its molecular weight.
Male ICR mice (Charles River) are dosed by oral gavage with a test compound homogenized in 1% hydroxethylcellulose/0.25% TWEEN® 80, at a concentration range of 0.3-3 mg/mL, depending on dose; thus dosing volume is 10 ml/kg body weight. Staurosporine, dissolved in the same vehicle, may be used as a positive control to verify that the assay is functioning. […]
10% SDS-PAGE is conducted on the cell lysates (30 μg protein loaded per lane), with 130 V for 90 min. […] Intensity of near-infrared fluorescence is proportional to the level of PKC substrate phosphorylation. It is quantitated with ODYSSEY® software. […]

IC50 (PKC [1]): ~800 nM
Structure (SMILES): C[C@@H]1CN(C(=O)c2cc(-c3c(F)cc(O)cc3F)cc3cnsc23)C[C@H](C)N1.Cl [Example 2, 4-(7-{[(3R,5 S)-3,5-DIMETHYLPIPERAZIN-1-YL]CARBONYL}-1,2-BENZOTHIAZOL-5-YL)-3,5-DIFLUOROPHENOL HYDROCHLORIDE]
ID50, pleckstrin phosphorylation, PBMCs (PKC [2]; PBMCs): about 18.03 mg/kg
ID50, pleckstrin phosphorylation, platelets (PKC [2]; platelets): about 11.85 mg/kg
